Assay results as given in patent publication US20080038321A1, “PROPHYLACTIC/THERAPEUTIC COMPOSITIONS FOR LIVER DISEASES” (Ajinomoto Co., Inc., priority 2004, published 2008).
“Also recorded” adds a separate entry of the source.

Experiments:
[1] = test system: glucose-6-phosphatase (G6Pase); assay: Effect of L-Asp on G6Pase expression suppressive action of insulin in Fao cells (quantitative PCR); assay type: cell-based, rat; conditions: for G6Pase expression level: 6 h, -Asp RPMI without insulin = 1.00; for G6Pase expression level (value in parentheses): -Asp RPMI at same insulin concentration = 1.00
Procedure: To verify whether an amino acid showing a TRB3 expression suppressive action actually increases the insulin action on hepatocytes, how L-Asp acts on glucose-6-phosphatase (G6Pase) expression suppressive action of insulin in rat hepatic cancer-derived Fao cells was studied.
Fao cells were inoculated on a 24-well plate and cultured overnight. Thereafter, 0, 0.3, and 1.0 mM L-Asp and 0, 10^−10, 10^−8, and 10^−6 M insulin were added respectively to a basal medium corresponding to RPMI 1640 medium containing no glucose but 0.1% BSA, except with L-Asp being removed therefrom, and the cells were further cultivated for six hours. RNAs were extracted from the cultured cells, and the expression levels of G6Pase were determined through quantitative PCR.
The G6Pase expression level in −Asp RPMI medium added with no insulin is defined as 1.00.
The values in the parentheses are values while defining the G6Pase expression levels in −Asp RPMI medium at respective insulin concentrations as 1.00, respectively.

GK rats = assay: Long-term L-Asp in diet to GK rats: fasting blood glucose and insulin; assay type: in vivo, rat; conditions: 3% L-Asp-containing diet (3AS), 6 weeks, n = 5, mean ± SD
Procedure: Specifically, L-Asp as mixed in a diet was administered to GK rats over a long time, and the effect of the administration on gene expression in the liver and disease state was determined.
Male 6-week-old GK rats were purchased, pre-fed for one week, grouped into the following groups each including five rats, the diet was replaced with experimental diets, and the rats were fed with the experimental diets for eight weeks.
CON group: administered with a control diet
3AS group: administered with a 3% L-Asp-containing diet
6AS group: administered with a 6% L-Asp-containing diet
The fasting blood glucose level is generally considered to be an index reflecting the basal insulin secretion and the insulin resistance.

malic enzyme (ME) gene = assay: Liver gene expression profiling in GK rats (Gene Chip Rat Genome U34A Array): ME; assay type: in vivo; conditions: 8 weeks, CON group = 1.00
Procedure: (§1) Gene expression profiling was conducted using samples containing equivalent amounts of genes in the liver of individuals in the individual groups. The gene expression profiling was carried out with the Gene Chip Rat Genome U34A Array (Affymetrix Inc.). […] This is because the two genes relate to steatogenesis.
(§2) The mRNA levels are expressed while defining the level in the CON group as 1.00.

[2] = test system: stearoyl-Coenzyme A desaturase 1 (SCD1) gene; assay: Liver gene expression profiling in GK rats (Gene Chip Rat Genome U34A Array): SCD1; assay type: in vivo; conditions: 8 weeks, CON group = 1.00
Procedure: as §1, §2

TRB3 [3] = assay: Liver gene expression in high-fat diet GK rats after 6-week administration (quantitative PCR): TRB3; assay type: in vivo, rat
From the text: (§3) The mRNA levels are expressed while defining the level in the SD group as 1.00. <Primer Sequence>

G6Pase = assay: Liver gene expression in high-fat diet GK rats after 6-week administration (quantitative PCR): G6Pase; assay type: in vivo, rat
From the text: as §3

PPAR-alpha = assay: Liver gene expression in high-fat diet GK rats after 6-week administration (quantitative PCR): PPAR-alpha; assay type: in vivo, rat
From the text: as §3

ACO = assay: Liver gene expression in high-fat diet GK rats after 6-week administration (quantitative PCR): ACO; assay type: in vivo, rat
From the text: as §3

CPT-1 = assay: Liver gene expression in high-fat diet GK rats after 6-week administration (quantitative PCR): CPT-1; assay type: in vivo, rat
From the text: as §3

TRB3 [4] = assay: TRB3 mRNA in Fao cells with L-Asp, L-Ala or both (quantitative PCR); assay type: cell-based, rat; conditions: 3 h, L-Asp 0.05 mM, L-Ala 0.03 mM or both
Procedure: (§4) Whether the suppressive effect of L-Asp on TRB3 expression in rat hepatocyte-derived Fao cells is increased by adding L-Ala as another amino acid was studied. Whether the expression of HNF-4α is increased was also studied. Fao cells were inoculated on a 24-well plate to an amount of 2×10^5 cells/well, and the cells were cultivated in a 10% fetal bovine serum-containing RPMI 1640 medium (supplied from Nacalai Tesque, Inc.; Code No. 30264-85) at 37° C. in an atmosphere of 5% CO2 overnight. On the following day, the medium was replaced with one of a 10% fetal bovine serum-containing RPMI medium from which all amino acids had been removed (minus amino acid medium; Table 1) and media corresponding to the minus amino acid medium, except with L-Asp (concentration: 0.05 mM), L-Ala (concentration: 0.03 mM), or both added, and the cells were further cultivated at 37° C. in 2.5% CO2 atmosphere for three hours. RNAs were extracted from the cultured cells, and the TRB3 mRNA levels and the HNF-4α mRNA levels were determined through quantitative polymerase chain reaction (PCR) (Table 10).

HNF-4α = HNF-4α mRNA in Fao cells with L-Asp, L-Ala or both (quantitative PCR); assay type: cell-based, rat; conditions: 3 h, L-Asp 0.05 mM, L-Ala 0.03 mM or both
Procedure: as §4

[5] = test system: Wistar rats fed with high-fat diets; assay: Wistar rats fed with high-fat diets: body weight and liver triglyceride; assay type: in vivo, rat
From the text: Pharmacological actions of L-Asp were identified using Wistar rats fed with high-fat diets.
These triglyceride contents were converted into total triglyceride contents in the entire liver.

[6] = test system: GK rats fed with high-fat diets; conditions: rat, in vivo
TRB3 [7] = assay: Suppressive effects of amino acids on TRB3 expression in cultured hepatocytes (Fao cells, quantitative PCR); assay type: cell-based, rat; conditions: other experiments; 0.03 mM to 0.3 mM
[8] = test system: GK rats fed with high-fat diets; assay: GK rats fed with high-fat diets: body weight, fasting glucose, insulin, triglyceride, liver triglyceride
[9] = HFD + Asp, HFD = 1.00 in table, n = 6, mean
[10] = HFD + Asp, 6-week administration, HFD = 1.00 in table, n = 6, mean
[11] = L-Asp administration, 6 weeks, HFD
[12] = before administration (baseline), HFD with about 6% L-Asp or 0.01% pioglitazone
[13] = week 3, HFD with about 6% L-Asp or 0.01% pioglitazone
[14] = week 6, HFD with about 6% L-Asp or 0.01% pioglitazone

Q: Which G6Pase expression level ([1]; 0.3 mM Asp, insulin 0 M) does the source give for N[C@@H](CC(=O)O)C(=O)O [L-Asp, L-aspartic acid] here?
A: 0.603

Q: And the “G6Pase expression level (value in parentheses)” value ([1]; 0.3 mM Asp, insulin 0 M)?
A: 0.60

Q: What about the G6Pase expression level ([1]; 0.3 mM Asp, insulin 10^-6 M) of the same molecule?
A: 0.014

Q: What about the “G6Pase expression level (value in parentheses)” value ([1]; 0.3 mM Asp, insulin 10^-6 M) of the same molecule?
A: 0.60

Q: What about the G6Pase expression level ([1]; 0.3 mM Asp, insulin 10^-8 M) of the same molecule?
A: 0.022

Q: And the “G6Pase expression level (value in parentheses)” value ([1]; 0.3 mM Asp, insulin 10^-8 M)?
A: 0.70

Q: What about the G6Pase expression level ([1]; 0.3 mM Asp, insulin 10^-10 M) of the same molecule?
A: 0.100

Q: What about the “G6Pase expression level (value in parentheses)” value ([1]; 0.3 mM Asp, insulin 10^-10 M) of the same molecule?
A: 0.67

Q: What about the G6Pase expression level ([1]; 1 mM Asp, insulin 0 M) of the same molecule?
A: 0.397

Q: What about the “G6Pase expression level (value in parentheses)” value ([1]; 1 mM Asp, insulin 0 M) of the same molecule?
A: 0.40

Q: And the G6Pase expression level ([1]; 1 mM Asp, insulin 10^-6 M)?
A: 0.008

Q: What about the “G6Pase expression level (value in parentheses)” value ([1]; 1 mM Asp, insulin 10^-6 M) of the same molecule?
A: 0.36

Q: And the G6Pase expression level ([1]; 1 mM Asp, insulin 10^-8 M)?
A: 0.016

Q: What about the “G6Pase expression level (value in parentheses)” value ([1]; 1 mM Asp, insulin 10^-8 M) of the same molecule?
A: 0.52

Q: And the G6Pase expression level ([1]; 1 mM Asp, insulin 10^-10 M)?
A: 0.076

Q: What about the “G6Pase expression level (value in parentheses)” value ([1]; 1 mM Asp, insulin 10^-10 M) of the same molecule?
A: 0.51

Q: And the “G6Pase expression suppressive action” value ([1]; L-Asp alone, glucose starvation)?
A: G6Pase expression suppressive action even if used alone

Q: What about the G6Pase expression suppression ([1]; L-Asp in combination with insulin) of the same molecule?
A: increased G6Pase expression suppression when used in combination with insulin

Q: And the “Fasting blood glucose level” value (GK rats)?
A: 151 ± 4.8 mg/dL

Q: What about the “ME mRNA level in liver” value (malic enzyme (ME) gene; 3% L-Asp diet (3AS)) of the same molecule?
A: 0.55

Q: And the “ME mRNA level in liver” value (malic enzyme (ME) gene; 6% L-Asp diet (6AS))?
A: 0.62

Q: And the “SCD1 mRNA level in liver” value ([2]; 3% L-Asp diet (3AS))?
A: 0.78

Q: What about the “SCD1 mRNA level in liver” value ([2]; 6% L-Asp diet (6AS)) of the same molecule?
A: 0.71

Q: And the “TRB3 mRNA level in liver” value (TRB3 [3]; [9])?
A: 0.58

Q: What about the “TRB3 expression relative to HFD group” value (TRB3 [3]; HFD plus Asp group) of the same molecule?
A: 0.58 time

Q: What about the “G6Pase mRNA level in liver” value (G6Pase; [9]) of the same molecule?
A: 0.52

Q: What about the “G6Pase expression relative to HFD group” value (G6Pase; HFD plus Asp group) of the same molecule?
A: 0.52 time

Q: What about the “PPARα mRNA level in liver” value (PPAR-alpha; [10]) of the same molecule?
A: 1.34

Q: And the PPAR-alpha gene expression (PPAR-alpha; [11])?
A: 1.34 time

Q: And the “ACO mRNA level in liver” value (ACO; [10])?
A: 1.18

Q: What about the ACO gene expression (ACO; [11]) of the same molecule?
A: 1.18 time

Q: What about the “CPT-1 mRNA level in liver” value (CPT-1; [10]) of the same molecule?
A: 1.20

Q: What about the CPT-1 gene expression (CPT-1; [11]) of the same molecule?
A: 1.20 time

Q: And the “TRB3 mRNA level” value (TRB3 [4]; minus amino acid medium = 1.00)?
A: 0.54

Q: What about the “expression level of TRB3 mRNA” value (TRB3 [4]; of minus amino acid medium) of the same molecule?
A: 54%

Q: What about the “expression level of HNF-4α mRNA” value (HNF-4α) of the same molecule?
A: 1.3 time

Q: What about the “HNF4α mRNA level” value (HNF-4α; minus amino acid medium = 1.00) of the same molecule?
A: 1.30

Q: What about the Body weight ([5]; before administration (baseline), HFD plus about 6% L-Asp, n = 6) of the same molecule?
A: 328 ± 9 g

Q: What about the triglyceride content ([5]; four weeks, HFD plus Asp group, HFD group 57.6) of the same molecule?
A: 43.4 mg per 1 g of the liver

Q: What about the “total triglyceride content in the liver” value ([5]; four weeks, HFD plus Asp group, HFD group 1047.5) of the same molecule?
A: 743.4 mg

Q: What about the “Triglyceride content in liver” value ([5]; week 4, HFD plus about 6% L-Asp) of the same molecule?
A: 43 ± 10 mg/g

Q: What about the Body weight ([5]; week 4, HFD plus about 6% L-Asp, n = 6) of the same molecule?
A: tended to have a decreased body weight

Q: And the Body weight ([5]; week 4, HFD plus about 6% L-Asp, n = 6, listed as Asp)?
A: 474 ± 20 g

Q: What about the Body weight [6] of the same molecule?
A: 221 ± 11 g

Q: What about the “suppression of TRB3 expression” value (TRB3 [7]) of the same molecule?
A: significantly suppresses the TRB3 expression

Q: And the “lipid droplet accumulation around the hepatic portal vein region (histological study)” value ([8]; HFD plus Asp group)?
A: improved (reduced) lipid droplet accumulation

Q: What about the “increase in fasting blood glucose level and fasting plasma insulin level (insulin resistance)” value ([8]; HFD plus Asp group compared with HFD group) of the same molecule?
A: less increase in these parameters; also recorded: substantially equivalent to that of the pioglitazone group

Q: And the fasting plasma triglyceride ([8]; HFD plus Asp group compared with SD group)?
A: decreased fasting plasma triglyceride

Q: And the “Fasting blood glucose level” value [8, 12]?
A: 100 ± 8 mg/dL

Q: And the Fasting insulin level [8, 12]?
A: 0.5 ± 0.3 ng/mL

Q: And the Fasting triglyceride level [8, 12]?
A: 92 ± 20 mg/dL

Q: And the “Fasting blood glucose level” value [8, 13]?
A: 124 ± 7 mg/dL

Q: What about the Fasting insulin level [8, 13] of the same molecule?
A: 1.6 ± 0.4 ng/mL

Q: What about the Fasting triglyceride level [8, 13] of the same molecule?
A: 77 ± 14 mg/dL

Q: And the “Fasting blood glucose level” value [8, 14]?
A: 110 ± 10 mg/dL

Q: And the Fasting insulin level [8, 14]?
A: 1.5 ± 0.2 ng/mL

Q: And the Fasting triglyceride level [8, 14]?
A: 70 ± 16 mg/dL

Q: And the “Triglyceride content in liver” value [8, 14]?
A: 28 ± 5 mg/g
